The text below walks through data of patent US9351971B2, “Substituted 2,2′-biphenazines for treating diseases” (Eutropics Pharmaceuticals, Inc., priority 2010, dated 2016).

Entries after “also recorded” stand apart in the source; their conditions may differ.

In assay [1] the test system is SUDHL-6 lymphoid cell line. The assay is described as follows: Cell viability MTS assay, SUDHL-6. Format: cell-based. The conditions noted are these: Homo sapiens, SU-DHL-6, 48 hours, read-out: EC50, cell killing in SUDHL-6. Here is the method:
The lymphoid derived cell lines DHL-6 and DHL-10 were obtained from Anthony Letai of the Dana Father Cancer Research Institute, Boston, Mass. The […] derived cell line NCP-H929 was obtained irons, the NIH/NCI cell repository. AML-3 cells were obtained from Dr. Michael Andreef (MD Anderson Cancer Center, Houston, Tex.). Cells were grown in RPMI 1640 medium (GIBCO-BRL) supplemented with Pen-strep-glutamine (Gibco 10378) and 5% fetal bovine serum.
Cells were expanded in tissue culture in appropriate media and then subcultured into 96-well plates at a seeding density of 20,000-40,000 cells per well, and cells were treated with one or more compounds that were titrated info appropriate medium with FCS. Cell lines were treated with compound A at concentrations ranging from 25 μM to 25 nM. The BH3-mimetic obatoclax (Nguyen M et al. (2007), Proc. Natl. Acad. Sci. USA 104:19512-19517) was also tested against the SUDHL-6, SUDHL-10, and NCI-H929 cell lines. Cells were treated for 48 hours and scored for viability using the MTS assay (Promega). Growth inhibition was indicated as a percentage of control cell growth. Growth was determined by measuring the A570 (control cells)—A570 (treated cells)/A570 (control cells). EC50 values were calculated using Graphpad Prizm software.
(In general: Formazan colour is commonly taken as a measure of viable cells.)

The target in a further assay is T1, Mcl-1 (Homo sapiens, UniProt Q07820).
T1 construct: made in house; host or cells: E. coli
The assay is described as follows: Fluorescence polarization assay, Bim BH3 peptide binding to GST-Mcl-1. An excerpt: A nineteen amino acid peptide, corresponding to the BH3 domain of Bim, with the sequence FITC-GGGIAQELRRIGDEFNAY (SEQ ID NO: 1) was labeled with the tluorophore FITC according to the manufacturer's instructions (Molecular Probes, Eugene, Oreg.). This sequence was identified as being able to bind to purified Bcl-xL protein (Sattler et al. (1997) Science 275(5302): 983-86) and to have biological activity in cells (Holinger et al. J. Biol. Chem. 274; 13298-1330).
In addition, recombinant GST -Mcl-1 and GST-Bcl-xL fusion proteins were generated in E.coli and purified using glutathione-sepharose beads using conventional techniques known to those skilled in the fields of biochemistry and molecular biology, (methods for preparation are described in Strategies for Protein Purification and Characterization, Marshak, D, Kadonga, J, Burgess R, Knuth, M, Brennan, W, Sue-Hwa, L, CSH press, Cold Spring Harbor, N.Y.). Binding of the recombinant proteins to the fluorescent Bim BH3 domain was confirmed by titration of increasing concentrations of the recombinant proteins against a constant amount of labeled Bim peptide (16.65 nM). Quantitation of binding was accomplished by FP assay with mP measurements made on the Analyst-GT reader (Molecular Devices, Sunnyvale, Calif.).
Further, the ability of compound A to disrupt the interaction between the fluorescent Bim BH3 peptide and the two fusion proteins was assessed using a fluorescence polarization assay. The Bim peptide (in solution at 4 nano-Molar) and either GST-Mcl-1 (in solution at 12.5 nM) or GST-Bcl-xL (in solution at 11.8 nM) were first combined together in phosphate buttered saline buffer, and then the compound solution in DMSO was added to final concentrations ranging from 10 μM to 0.1 nM). Normally the unbound Bim polypeptide results in polarization of 5 mP units. Upon binding of the GST-Bcl-xL and GST-Mcl-1 fusion protein, polarization increased to 100 mP units.
Experiments are performed using the fluorescence polarization assay as described in Example 2. Either Bcl-xL or Mcl-1 fusion proteins were titrated and maximum mp shift indicate binding concentrations for drug titration studies, as described in Example 2. Compound II-19, was titrated from 10 μM to 0.1 nM in 2 fold serial dilution into the peptide/protein solution. The IC50 for blocking each BH3 peptide from Mcl-1 are assessed using FP, as described in Example 2.
Experiments are performed using the fluorescence polarization assay as described in Example 2. Either GST-Bcl-xL or GST-Mcl-1 fusion proteins were titrated and maximum mp shift indicate binding concentrations for drug titration studies, as described in Example 2. Compound II-20, was titrated from 10 μM to 0.1 nM in 2-fold serial dilution into the peptide/protein solution. The IC50 for blocking each BH3 peptide from Mcl-1 are assessed using FP, as described in Example 2.
Background: In fluorescence polarisation assays a small probe gives low polarisation when free and higher when bound to something large.

Assay [2] concerns mitochondria in semi-permeabilized SUDHL-10 cells. The experiment in a line: In situ mitochondrial assay (cytochrome c release), SUDHL-10. In kind it is cell-based. The following applies: SUDHL-10 (DHL-10), Bax/Bak deficient, 10 uM. An excerpt: The on-target activity of compound II-19 was validated. Changes in mitochondrial integrity were observed utilizing anti-cytochrome c conjugated to Alcxa488 (BD). When the mitochondria are intact, they retain cytochrome c and have bright, punctate staining with the antibody whereas cells with compromised mitochondrial integrity will lose cytochrome c and will not stain with the antibody. This can be observed by microscopy as well as measured by a shift in fluorescence on the FL1 channel of a flow cytometer.
The selective response of mitochondria in semi-permeabilized cell lines to the compounds was observed. The assay was adapted from (Campos et al. (2006) Cytometry Part A. 69(A):515-523).
Suspension cell lines SUDHL10 and SUDHL6 were grown in RPMI, washed once in 1xPBS and re-suspended at a concentration of 2e6/ml in assay buffer with 0.0025% Digitonin. Assay buffer; 300 mM Trehalose, 10 mM HEPES-KOH pH 7.7, 80 mM KCl, 1 mM EGTA, 1 mM EDTA, 0.1% BSA, 5 mM Succinate. Cells are incubated with test and control compounds at 10^6 cells/treatment for 1 hour at room temperature. […] Cytochrome c loss was measured by microscopy. At least 100 cells per treatment were counted and scored as positive for cytochrome c loss if they lacked staining. In both methods DMSO was calculated as 0% cytochrome c loss and the Bim response for DHL6 was used to determine 100% cytochrome c loss.

T1 sequence (Q07820 whole entry): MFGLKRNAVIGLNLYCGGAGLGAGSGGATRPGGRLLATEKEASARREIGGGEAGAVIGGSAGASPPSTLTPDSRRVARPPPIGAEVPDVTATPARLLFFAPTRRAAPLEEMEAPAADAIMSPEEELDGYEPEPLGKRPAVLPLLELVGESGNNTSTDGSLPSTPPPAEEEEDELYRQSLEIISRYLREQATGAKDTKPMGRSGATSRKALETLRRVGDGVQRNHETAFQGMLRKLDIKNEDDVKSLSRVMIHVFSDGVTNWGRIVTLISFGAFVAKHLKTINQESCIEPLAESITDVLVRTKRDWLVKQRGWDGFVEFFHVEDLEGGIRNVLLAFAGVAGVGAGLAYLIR

Consider `COC(=O)c1ccc(O)c2nc3c(C=O)c(O)c(-c4c(O)c(C=O)c5nc6c(O)ccc(C(=O)OC)c6nc5c4O)c(O)c3nc12` [II-19, dimethyl 4,4′-diformyl-1,1′,3,3′,6,6′-hexahydroxy-[2,2′-biphenazine]-9,9′-dicarboxylate], for which the EC50 in assay [1] came out at 3000 nM. Further, the IC50 on Mcl-1 (fluorescence polarization, Bim-BH3-FITC peptide, GST-Mcl-1, read-out: IC50, inhibition of Bim-BH3 peptide binding to Mcl-1) worked out at 7 nM. The “preference for inhibition of Mcl-1 vs. Bcl-xL” value on Mcl-1 (ratio of FP IC50 values) was found to be 2 fold. Further, in assay [2], the “cytochrome c release from mitochondria” value is “but not BAX/BAK-deficient SUDHL-10 cell line; also recorded: lack of activity”.

As a reminder, the EC50 is the concentration at which the effect is half-maximal. One may read the IC50 as the concentration needed to halve the response being measured.
